This note sets out measurements from publication PMC9598880, “Activity of a Novel Anti-Inflammatory Agent F-3,6′-dithiopomalidomide as a Treatment for Traumatic Brain Injury” (Biomedicines, 2022).

Structures are written as SMILES.

The target in this assay is T1, cereblon (Homo sapiens, UniProt Q96SW2).
T1 construct: gene CRBN; CRBN/DDB1−CUL4A−Rbx1 complex (BPS Bioscience catalog no. 79770); with DDB1−CUL4A−Rbx1; BRD3
The assay can be described thus: AlphaScreen bead-based cereblon/BRD3 binding assay (called FRET in the text).

T1 sequence (Q96SW2 whole entry): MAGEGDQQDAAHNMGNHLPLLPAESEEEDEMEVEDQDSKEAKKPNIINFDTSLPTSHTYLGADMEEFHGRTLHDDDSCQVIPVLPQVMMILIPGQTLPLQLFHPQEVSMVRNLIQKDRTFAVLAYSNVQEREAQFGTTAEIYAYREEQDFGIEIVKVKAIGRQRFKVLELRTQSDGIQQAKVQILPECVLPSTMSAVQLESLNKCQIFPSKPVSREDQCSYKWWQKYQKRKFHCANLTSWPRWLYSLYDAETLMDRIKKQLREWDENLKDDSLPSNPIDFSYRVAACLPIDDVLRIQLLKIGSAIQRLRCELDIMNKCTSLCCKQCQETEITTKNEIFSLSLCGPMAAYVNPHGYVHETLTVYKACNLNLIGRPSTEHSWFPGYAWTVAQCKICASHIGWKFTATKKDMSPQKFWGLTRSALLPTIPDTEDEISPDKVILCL
T1 sequence (Q16531 2-1140 partner): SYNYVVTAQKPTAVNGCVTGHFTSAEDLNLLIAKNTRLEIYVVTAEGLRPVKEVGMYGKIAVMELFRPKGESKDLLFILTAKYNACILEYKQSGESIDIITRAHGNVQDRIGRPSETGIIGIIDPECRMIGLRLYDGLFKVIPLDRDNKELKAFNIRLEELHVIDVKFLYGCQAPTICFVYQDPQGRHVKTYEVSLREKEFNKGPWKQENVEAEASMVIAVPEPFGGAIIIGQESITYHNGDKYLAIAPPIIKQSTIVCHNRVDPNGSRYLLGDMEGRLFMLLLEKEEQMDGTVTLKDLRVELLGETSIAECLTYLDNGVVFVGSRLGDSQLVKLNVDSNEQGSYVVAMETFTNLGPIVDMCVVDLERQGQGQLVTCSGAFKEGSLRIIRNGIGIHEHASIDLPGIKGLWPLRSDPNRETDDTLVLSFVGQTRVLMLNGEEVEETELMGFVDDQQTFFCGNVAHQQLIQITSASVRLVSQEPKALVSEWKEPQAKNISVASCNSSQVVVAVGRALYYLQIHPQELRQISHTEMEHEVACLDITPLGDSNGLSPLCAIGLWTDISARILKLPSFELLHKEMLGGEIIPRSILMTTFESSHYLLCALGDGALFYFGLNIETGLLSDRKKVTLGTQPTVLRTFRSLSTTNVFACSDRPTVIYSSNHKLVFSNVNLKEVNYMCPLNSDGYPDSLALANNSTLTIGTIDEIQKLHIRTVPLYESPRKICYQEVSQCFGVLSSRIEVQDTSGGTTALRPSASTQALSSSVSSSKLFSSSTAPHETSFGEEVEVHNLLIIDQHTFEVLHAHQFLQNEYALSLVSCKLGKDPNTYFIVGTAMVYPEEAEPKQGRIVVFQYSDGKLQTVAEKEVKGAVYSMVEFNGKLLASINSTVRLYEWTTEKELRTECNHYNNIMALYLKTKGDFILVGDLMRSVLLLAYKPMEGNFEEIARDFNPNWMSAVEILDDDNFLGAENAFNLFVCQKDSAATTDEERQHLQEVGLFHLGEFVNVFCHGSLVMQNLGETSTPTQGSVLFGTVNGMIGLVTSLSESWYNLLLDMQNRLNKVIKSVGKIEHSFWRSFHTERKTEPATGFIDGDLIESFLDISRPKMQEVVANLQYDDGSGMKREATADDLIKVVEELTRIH
T1 sequence (Q13619 whole entry partner): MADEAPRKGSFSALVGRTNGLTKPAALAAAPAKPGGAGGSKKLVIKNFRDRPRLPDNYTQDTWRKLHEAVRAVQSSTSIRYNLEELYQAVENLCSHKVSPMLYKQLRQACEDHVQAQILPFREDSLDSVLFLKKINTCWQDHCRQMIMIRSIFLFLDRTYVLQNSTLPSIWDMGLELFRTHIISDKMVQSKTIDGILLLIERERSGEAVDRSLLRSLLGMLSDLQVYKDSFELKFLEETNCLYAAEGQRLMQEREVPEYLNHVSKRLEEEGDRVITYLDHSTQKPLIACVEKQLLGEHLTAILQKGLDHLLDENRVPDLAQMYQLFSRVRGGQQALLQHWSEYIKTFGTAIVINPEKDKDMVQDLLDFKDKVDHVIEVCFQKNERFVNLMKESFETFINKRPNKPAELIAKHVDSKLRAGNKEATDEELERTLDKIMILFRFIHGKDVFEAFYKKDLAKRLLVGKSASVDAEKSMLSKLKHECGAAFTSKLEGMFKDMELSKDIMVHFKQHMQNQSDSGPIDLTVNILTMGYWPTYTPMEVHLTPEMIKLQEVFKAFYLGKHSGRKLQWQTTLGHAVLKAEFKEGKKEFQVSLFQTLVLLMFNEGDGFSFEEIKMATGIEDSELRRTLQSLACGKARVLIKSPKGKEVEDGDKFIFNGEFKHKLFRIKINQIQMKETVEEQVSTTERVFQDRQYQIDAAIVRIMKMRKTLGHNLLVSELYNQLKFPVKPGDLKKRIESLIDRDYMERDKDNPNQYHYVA
T1 sequence (P62877 whole entry partner): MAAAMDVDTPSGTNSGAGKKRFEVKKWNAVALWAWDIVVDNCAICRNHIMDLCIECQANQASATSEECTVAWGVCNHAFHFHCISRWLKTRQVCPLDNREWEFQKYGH

In turn, `Nc1ccc(F)c2c1C(=S)N(C1CCC(=S)NC1=O)C2=O` (stereo not shown) [F-3,6′-DP] gave a half-maximal inhibitory concentration (IC50) of 2.66 µM.
